“Also recorded” adds a separate entry of the source. Read-outs that look alike come from different tables or passages of the source.
What was measured:
5HT2A [1] = molecular target: T1, 5HT2A (Homo sapiens (Human), UniProt P28223); assay: 5HT2A FLIPR (Ca2+ mobilization); assay type: cell-based
5HT2C [2] = molecular target: T2, 5HT2C (Homo sapiens (Human), UniProt P28335); assay: 5HT2C FLIPR (Ca2+ mobilization); assay type: cell-based
5HT1A [3] = molecular target: T3, 5HT1A (Homo sapiens (Human), UniProt P08908); assay: 5HT1A binding
5HT1A [4] = molecular target: T3, 5HT1A; assay: 5HT1A cAMP biosensor; assay type: cell-based
H1-histamine receptor = H1-histamine receptor (Homo sapiens (Human), UniProt P35367); assay: H1 binding
5HT2B [5] = molecular target: T4, 5HT2B (Homo sapiens (Human), UniProt P41595); conditions: read-out: 5HT2B/binding (Ki)
5HT2B [6] = molecular target: T4, 5HT2B
5HT2C [7] = molecular target: T2, 5HT2C; conditions: read-out: 5HT2C/binding (Ki)
[8] = system: wild-type and β-arrestin-2 knockout mice; conditions: i.p., 5.0 mg/kg (haloperidol 2.0 mg/kg), 30 and 60 min
5HT2B [9] = molecular target: T4, 5HT2B; assay: cell-based
5HT2B [10] = molecular target: T4, 5HT2B; assay: biochemical
5HT2C [11] = molecular target: T2, 5HT2C; assay: biochemical
D2 receptors [12] = molecular target: T5, D2 receptors (Homo sapiens (Human), UniProt P14416); assay: CHO-D2 radioligand binding assay ([3H]N-methylspiperone competition)
Target sequence in this assay (P14416 whole entry): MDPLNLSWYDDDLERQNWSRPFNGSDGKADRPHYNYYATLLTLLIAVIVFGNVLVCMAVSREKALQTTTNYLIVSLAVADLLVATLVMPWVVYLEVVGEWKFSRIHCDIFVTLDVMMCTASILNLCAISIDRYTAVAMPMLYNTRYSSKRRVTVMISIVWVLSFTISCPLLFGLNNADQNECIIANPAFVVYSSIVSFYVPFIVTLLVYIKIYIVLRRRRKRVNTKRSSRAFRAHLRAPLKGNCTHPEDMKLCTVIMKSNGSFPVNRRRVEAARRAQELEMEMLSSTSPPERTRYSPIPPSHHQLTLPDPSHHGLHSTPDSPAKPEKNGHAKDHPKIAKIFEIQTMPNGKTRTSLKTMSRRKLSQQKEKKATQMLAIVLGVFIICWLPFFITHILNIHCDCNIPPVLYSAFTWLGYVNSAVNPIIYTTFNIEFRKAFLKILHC

hD2 receptors = hD2 receptors (Homo sapiens (Human), UniProt P14416); assay: D2 mediated cAMP GloSensor assay; assay type: cell-based
D2 receptors [13] = molecular target: T5, D2 receptors; assay: D2 β-arrestin recruitment (Tango) assay; assay type: cell-based
Description: The next day, cells were plated in white, clear-bottom, 384-well plates (Greiner, 10,000 cells/well, 50 μl/well) in DMEM containing 1% dialyzed fetal bovine serum. […] Data were normalized to vehicle (0%) and quinpirole (100%) controls and regressed using the sigmoidal dose-response function built into GraphPad Prism 4.0.
Target sequence in this assay (P14416 whole entry, looked up): as the sequence (P14416 whole entry) above

hD2L dopamine receptor = hD2L dopamine receptor (Homo sapiens (Human), UniProt P14416); assay: pERK high-content assay; assay type: cell-based; conditions: normalized to dopamine; read-out: p-ERK Emax
Description: On day 1 of the assay, cells were seeded onto black clear-bottom tissue culture-treated 96-well plates (Greiner, BioOne). On day 2 of the assay, cells were washed with serum-free medium (Ham's F-12, penicillin and streptomycin) and incubated in 100 μL serum-free medium overnight.
Immunofluorescence: Automatic multichannel pipetters were used for liquid handling and multichannel vacuum manifolds for aspirations. Each tested concentration was typically measured in triplicate or quadruplicate. For concentration curves, half-log-dilutions were used. Drug dilutions were prepared in stimulation medium (serum-free medium, 100 mg/L ascorbic acid). 100 μM dopamine and 1 μM PMA (phorbol 12-myristate 13-acetate) were used as positive controls. Medium only was used as a negative control. Specificity of the response was confirmed by pretreatment for 5 min with 10 μM of the antagonist spiperone and in experiments using wild type CHO cells.
Cells were stimulated on day 3 by fast addition of 50 μL equilibrated 3× drug dilutions in a tissue culture incubator for 5 min. Plates were placed on ice, the medium was aspirated, and 100 μL/well of freshly prepared ice-cold fixing buffer (4% formaldehyde and 0.5 mM CaCl2 in PBS) solution was added. After 30 min fixing at room temperature, the plates were washed with 350 μL/well PBS/Ca (0.5 mM CaCl2 in PBS) and permeabilized for 20 min in 100 μL/well 0.3% Triton X-100 in PBS/Ca. […] Plates were washed three times with 250 μL/well washing buffer, post-fixed for 10 min in fixing buffer, washed with 250 μl PBS/Ca, filled with 200 μL/well PBS/Ca, sealed with transparent adhesive plate seals, and stored at 4° C.
The Alexa594 light path was used for the target signal, Alexa488 for whole cell staining, and Hoechst for the nuclear staining. Images were analyzed using the CellProfiler software. […] Concentration curves were analyzed in GraphPad Prism by fitting against a sigmoidal dose-response model and normalization to the dopamine curve.

D1 dopamine receptor = D1 dopamine receptor (Homo sapiens (Human), UniProt P21728); conditions: read-out: D1/binding (Ki)
D3-dopamine receptor = D3-dopamine receptor (Homo sapiens (Human), UniProt P35462); conditions: read-out: D3/binding (Ki)
D4 dopamine receptor = D4 dopamine receptor (Homo sapiens (Human), UniProt P21917); conditions: read-out: D4/binding (Ki)
D5 dopamine receptor = D5 dopamine receptor (Homo sapiens (Human), UniProt P21918); conditions: read-out: D5/binding (Ki)
5HT2A [14] = molecular target: T1, 5HT2A; conditions: read-out: 5HT2A/binding (Ki)
[15] = mouse
C57BL/6 mice = conditions: i.p., 3 mg/kg D-amphetamine
[16] = system: wild-type and β-arrestin-2 knockout mice; conditions: i.p., 6 mg/kg PCP
in vivo = conditions: mouse
5HT2A [17] = molecular target: T1, 5HT2A; assay: biochemical

T2 sequence (P28335 33-458, species assumed): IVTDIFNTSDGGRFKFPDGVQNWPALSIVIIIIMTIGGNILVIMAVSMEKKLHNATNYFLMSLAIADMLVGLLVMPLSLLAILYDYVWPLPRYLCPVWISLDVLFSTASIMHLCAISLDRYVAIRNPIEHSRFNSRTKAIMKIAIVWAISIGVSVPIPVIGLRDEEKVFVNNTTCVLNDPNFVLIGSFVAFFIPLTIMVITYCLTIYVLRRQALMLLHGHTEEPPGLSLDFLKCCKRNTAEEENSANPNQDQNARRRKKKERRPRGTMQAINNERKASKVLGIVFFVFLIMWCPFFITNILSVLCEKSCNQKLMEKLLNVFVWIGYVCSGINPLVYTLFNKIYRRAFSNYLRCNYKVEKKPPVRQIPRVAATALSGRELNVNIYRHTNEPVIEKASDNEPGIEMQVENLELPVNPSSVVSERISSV
T4 sequence (P41595 whole entry, species assumed): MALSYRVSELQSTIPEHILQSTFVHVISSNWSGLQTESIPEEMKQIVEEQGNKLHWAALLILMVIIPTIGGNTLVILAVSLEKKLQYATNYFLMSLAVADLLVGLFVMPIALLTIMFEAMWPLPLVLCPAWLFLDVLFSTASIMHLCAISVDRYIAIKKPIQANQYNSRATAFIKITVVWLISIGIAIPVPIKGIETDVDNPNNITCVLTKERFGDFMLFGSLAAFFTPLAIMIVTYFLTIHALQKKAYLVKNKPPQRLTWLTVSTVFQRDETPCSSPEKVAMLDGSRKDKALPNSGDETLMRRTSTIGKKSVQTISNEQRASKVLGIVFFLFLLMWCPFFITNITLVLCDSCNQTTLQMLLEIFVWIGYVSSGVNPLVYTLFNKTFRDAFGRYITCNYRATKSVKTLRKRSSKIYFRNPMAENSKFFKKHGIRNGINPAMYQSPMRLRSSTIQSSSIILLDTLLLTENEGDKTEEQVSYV
Sequence of hD2 receptors (P14416 whole entry): as the sequence (P14416 whole entry) above
Sequence of H1-histamine receptor (P35367 whole entry): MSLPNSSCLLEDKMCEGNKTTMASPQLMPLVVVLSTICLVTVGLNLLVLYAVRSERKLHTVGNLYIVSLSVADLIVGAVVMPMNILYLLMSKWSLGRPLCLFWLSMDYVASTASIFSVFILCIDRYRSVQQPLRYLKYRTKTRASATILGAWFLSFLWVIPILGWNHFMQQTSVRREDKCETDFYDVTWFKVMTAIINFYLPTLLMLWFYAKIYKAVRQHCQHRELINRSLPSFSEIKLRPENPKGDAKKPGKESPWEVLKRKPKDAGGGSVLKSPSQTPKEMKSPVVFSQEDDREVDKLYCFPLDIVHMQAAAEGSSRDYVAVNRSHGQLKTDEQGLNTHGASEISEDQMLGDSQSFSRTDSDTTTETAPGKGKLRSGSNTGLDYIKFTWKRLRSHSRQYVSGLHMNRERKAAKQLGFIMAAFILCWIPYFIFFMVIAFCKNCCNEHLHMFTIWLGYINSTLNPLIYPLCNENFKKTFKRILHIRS
Sequence of D3-dopamine receptor (P35462 whole entry): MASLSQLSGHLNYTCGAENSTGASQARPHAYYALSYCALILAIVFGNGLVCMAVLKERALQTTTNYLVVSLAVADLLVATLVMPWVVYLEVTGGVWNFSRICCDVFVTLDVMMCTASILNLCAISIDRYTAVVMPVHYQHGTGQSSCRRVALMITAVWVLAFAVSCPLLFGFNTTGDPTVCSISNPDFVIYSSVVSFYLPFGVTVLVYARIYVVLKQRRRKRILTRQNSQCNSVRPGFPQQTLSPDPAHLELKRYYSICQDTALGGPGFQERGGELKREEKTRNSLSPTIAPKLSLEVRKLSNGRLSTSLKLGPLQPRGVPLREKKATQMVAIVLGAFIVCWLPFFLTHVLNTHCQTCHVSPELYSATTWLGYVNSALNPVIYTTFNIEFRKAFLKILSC
Sequence of D4 dopamine receptor (P21917 whole entry): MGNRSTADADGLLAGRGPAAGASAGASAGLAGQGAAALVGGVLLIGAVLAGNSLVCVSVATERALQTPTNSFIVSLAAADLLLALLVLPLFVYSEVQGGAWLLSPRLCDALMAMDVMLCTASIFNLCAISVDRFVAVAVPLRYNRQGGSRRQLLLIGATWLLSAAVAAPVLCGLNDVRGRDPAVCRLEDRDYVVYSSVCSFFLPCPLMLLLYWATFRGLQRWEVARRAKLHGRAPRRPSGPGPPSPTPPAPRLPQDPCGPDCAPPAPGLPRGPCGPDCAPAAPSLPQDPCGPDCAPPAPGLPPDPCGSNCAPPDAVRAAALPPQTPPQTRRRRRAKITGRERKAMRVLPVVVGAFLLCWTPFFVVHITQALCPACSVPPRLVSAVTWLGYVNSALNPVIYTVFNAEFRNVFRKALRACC
Sequence of hD2L dopamine receptor (P14416 whole entry): as the sequence (P14416 whole entry) above
Sequence of D1 dopamine receptor (P21728 whole entry): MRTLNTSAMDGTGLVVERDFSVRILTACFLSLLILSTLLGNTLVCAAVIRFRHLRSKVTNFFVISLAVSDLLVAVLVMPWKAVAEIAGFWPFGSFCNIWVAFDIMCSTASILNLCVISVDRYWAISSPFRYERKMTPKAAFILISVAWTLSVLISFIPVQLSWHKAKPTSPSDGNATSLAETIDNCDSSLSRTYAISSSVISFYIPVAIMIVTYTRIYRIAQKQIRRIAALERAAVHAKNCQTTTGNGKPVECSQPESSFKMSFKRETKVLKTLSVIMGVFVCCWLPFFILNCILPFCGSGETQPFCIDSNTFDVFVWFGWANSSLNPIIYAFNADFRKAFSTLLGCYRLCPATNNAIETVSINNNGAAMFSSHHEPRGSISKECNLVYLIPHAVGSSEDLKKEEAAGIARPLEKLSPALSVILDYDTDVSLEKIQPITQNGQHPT
Sequence of D5 dopamine receptor (P21918 whole entry): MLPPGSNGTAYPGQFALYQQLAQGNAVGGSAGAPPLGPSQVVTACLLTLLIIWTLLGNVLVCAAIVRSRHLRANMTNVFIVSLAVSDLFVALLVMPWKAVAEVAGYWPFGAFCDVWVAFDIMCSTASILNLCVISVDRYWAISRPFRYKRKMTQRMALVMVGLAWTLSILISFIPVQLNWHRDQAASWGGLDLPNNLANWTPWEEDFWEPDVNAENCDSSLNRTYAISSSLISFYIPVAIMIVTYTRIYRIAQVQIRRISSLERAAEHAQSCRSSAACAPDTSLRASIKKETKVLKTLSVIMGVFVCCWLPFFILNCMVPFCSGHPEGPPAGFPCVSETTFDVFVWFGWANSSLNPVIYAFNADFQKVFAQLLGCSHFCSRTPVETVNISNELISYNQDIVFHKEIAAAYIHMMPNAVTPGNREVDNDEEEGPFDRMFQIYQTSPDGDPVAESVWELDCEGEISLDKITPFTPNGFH

Structure (SMILES): O=C1CCc2ccc(OCCCCN3CCCN(c4cccc(Cl)c4Cl)CC3)cc2N1 [Compound 2, 7-(4-(4-(2,3-dichlorophenyl)-1,4-diazepan-1-yl)butoxy)-3,4-dihydroquinolin-2(1H)-one]
- functional mode at 5HT2A (5HT2A [1]): antagonists
- IC50 (5HT2C [2]): 3600 nM
- functional mode at 5HT2C (5HT2C [2]): antagonists
- Ki (5HT1A [3]): 0.6 to 250 nM
- Ki (5HT1A [3]; read-out: 5HT1A/binding (Ki)): 60 nM
- EC50 (5HT1A [4]): > 1000 nM
- EC50 (5HT1A [4]; read-out: 5HT1A/cAMP (EC50)): 2500 nM
- Ki (H1-histamine receptor): 4.5 nM
- Ki (5HT2B [5]): 0.6 nM
- functional mode at 5HT2B (5HT2B [6]): antagonists
- Ki (5HT2C [7]): 115 nM
- catalepsy (latency to move, inclined screen test) ([8]; wild-type mice, listed as UNC0006): do not induce catalepsy
- catalepsy (latency to move, inclined screen test) ([8]; β-arrestin-2 knockout mice, listed as UNC0006): induced catalepsy; also recorded: inducing catalepsy
- IC50 (5HT2B [9]): 115 nM
- Ki (5HT2B [10]): 0.6 to 250 nM
- Ki (5HT2C [11]): 0.6 to 250 nM

Structure (SMILES): O=C1CCc2ccc(OCCCCN3CCCN(c4cccc(Cl)c4Cl)CC3)nc2N1 [Compound 3, 7-(4-(4-(2,3-dichlorophenyl)-1,4-diazepan-1-yl)butoxy)-3,4-dihydro-1,8-naphthyridin-2(1H)-one]
- Ki (D2 receptors [12]; Table 7, read-out: D2/binding (Ki)): < 10 nM
- Ki (D2 receptors [12]; read-out: D2/binding (Ki)): 2.6 nM
- Ki (D2 receptors [12]; read-out: D2 Binding Ki ± SEM): 1.2 ± 0.1 nM
- EC50 (hD2 receptors): 13 nM
- Emax (hD2 receptors; read-out: cAMP (GloSensor) Emax): -94%
- β-arrestin (Tango) % activ at 1 μM (D2 receptors [13]; 1 μM): 11%
- EC50 (D2 receptors [13]; HTLA cells, read-out: β-arrestin (Tango) EC50): 3.3 nM
- Emax (D2 receptors [13]; normalized to quinpirole (100%)): 44%
- Emax (hD2L dopamine receptor): < 5%
- IC50 (5HT2A [1]): 660 nM
- functional mode at 5HT2A (5HT2A [1]): antagonists
- functional mode at 5HT2C (5HT2C [2]): antagonists
- IC50 (5HT2C [2]; read-out: 5HT2C/FLIPR (IC50)): 2200 nM
- Ki (5HT1A [3]; read-out: 5HT1A/binding (Ki)): 29 nM
- EC50 (5HT1A [4]; read-out: 5HT1A/cAMP (EC50)): 1800 nM
- EC50 (5HT1A [4]; text bound, read-out: 5HT1A EC50 (weak agonists)): > 1000 nM
- Ki (H1-histamine receptor): 6.1 nM
- Ki (D1 dopamine receptor): 1040 nM
- Ki (D3-dopamine receptor): 11 nM
- Ki (D4 dopamine receptor): 178 nM
- Ki (D5 dopamine receptor): 513 nM
- Ki (5HT2A [14]): 7.4 nM
- Ki (5HT2B [5]): 1.1 nM
- functional mode at 5HT2B (5HT2B [6]): antagonists
- Ki (5HT2C [7]): 99 nM
- brain exposure level, fold lower compared to aripiprazole [15]: about 3 fold
- Brain/Plasma Ratio ([15]; 0.08 h): 0.57 mL/g
- Brain/Plasma Ratio ([15]; 0.5 h): 1.12 mL/g
- Brain/Plasma Ratio ([15]; 1 h): 1.29 mL/g
- Brain/Plasma Ratio ([15]; 2 h): 3.67 mL/g
- Brain/Plasma Ratio ([15]; 4 h): 12.26 mL/g
- Brain/Plasma Ratio ([15]; […]): 0.80 mL/g
- antipsychotic-like activity in D-amphetamine-induced hyperlocomotion (C57BL/6 mice): potent antipsychotic-like activity
- antipsychotic-like activity in PCP-induced hyperlocomotion ([16]; wild-type mice): potent antipsychotic-like activity
- antipsychotic-like activity in PCP-induced hyperlocomotion ([16]; β-arrestin-2 knockout mice): attenuated
- catalepsy (latency to move, inclined screen test) ([8]; wild-type mice, listed as UNC9975): do not induce catalepsy
- catalepsy (latency to move, inclined screen test) ([8]; β-arrestin-2 knockout mice, listed as UNC9975): induced catalepsy; also recorded: inducing catalepsy
- AUC(0-inf) (in vivo; brain): 329 ng·h/mL
- AUC(0-t) (in vivo; brain): 267 ng·h/mL
- Cmax (in vivo; brain): 49.8 ng/mL
- Tmax (in vivo; brain): 15 min
- concentration at 0.08 h (in vivo; brain): 37.8 ng/g
- concentration at 0.5 h (in vivo; brain): 27.2 ng/g
- concentration at 1 h (in vivo; brain): 31.2 ng/g
- concentration at 2 h (in vivo; brain): 23 ng/g
- concentration at 4 h (in vivo; brain): 16.9 ng/g
- concentration at 8 h (in vivo; brain): 9.9 ng/g
- concentration at 24 h (in vivo; brain): 4.2 ng/g
- half-life (in vivo; brain): 636 min
- AUC(0-inf) (in vivo; plasma): 61.5 ng·h/mL
- AUC(0-t) (in vivo; plasma): 59.9 ng·h/mL
- Cmax (in vivo; plasma): 70.6 ng/mL
- Tmax (in vivo; plasma): 4.8 min
- concentration at 0.08 h (in vivo; plasma): 70.6 ng/mL
- concentration at 0.5 h (in vivo; plasma): 23.7 ng/mL
- concentration at 1 h (in vivo; plasma): 24.6 ng/mL
- concentration at 2 h (in vivo; plasma): 6.3 ng/mL
- concentration at 4 h (in vivo; plasma): 1.4 ng/mL
- concentration at 8 h (in vivo; plasma): 0 ng/mL
- concentration at 24 h (in vivo; plasma): 0 ng/mL
- half-life (in vivo; plasma): 48.6 min
- IC50 (5HT2B [9]): 76 nM
- Ki (5HT2A [17]): 0.6 to 250 nM
- Ki (5HT2B [10]): 0.6 to 250 nM
- Ki (5HT2C [11]): 0.6 to 250 nM

From patent US9156822B2, “Functionally selective ligands of dopamine D2 receptors” (The University of North Carolina at Chapel Hill, priority 2010, dated 2015)
